# Measurements from patent US20080009435A1, “Synthetic methods for aplidine and new antitumoral derivatives, methods of making and using them” (Pharma Mar, S.A., a Spain corporation, priority 2000, published 2008).
# Read-outs that look alike come from different tables or passages of the source. *1 amine or outer side, *2 acyl side, *3 side chain or, on linkers, in order; H or OH if unused. Where a SMILES comes first, the peptide text is derived from it. Bridges are numbered along the chain shown (N, C = ends). [ ]: non-standard residue; d: D form. The star is where a group is joined. X1 = CC[C@H](C)[C@@H](N[*:1])[C@@H](O)CC(=O)O[C@H](C(=O)[C@H](C)C(=O)[*:2])C(C)C; X2 = CC[C@H](C)[C@@H](N[*:1])[C@@H](O)CC(=O)[*:2]; NMeY = CN[C@@H](Cc1ccc(O)cc1)C(=O)O; dNMeL = CN[C@H](CC(C)C)C(=O)O; Hiv = CC(C)[C@H](O)C(=O)O; Pyruvoyl = CC(=O)C(=O)*; Cbz = O=C(OCc1ccccc1)*
# Legend:
# [1] = test system: Hut 78 (Lymphoma, Cutaneous T cell); assay: IC50 Aplidine Family panel (MTT); type: cell-based; conditions: read-out: IC50 (Molar) Lymphoma (Cutaneous T cell) Hut 78
# HT-29 (Colon) = assay: IC50 Aplidine Family panel (MTT/MTS); type: cell-based, human; conditions: MTT; read-out: IC50 (Molar) Colon HT-29
# [2] = test system: Molt 3 (ALL, Acute lymphobalstic); assay: IC50 Aplidine Family panel (MTT/MTS); type: cell-based; conditions: MTT; read-out: IC50 (Molar) ALL (Acute lymphobalstic) Molt 3
# SW 694 (Fibrosarcoma) = assay: IC50 Aplidine Family panel (MTT/MTS); type: cell-based; conditions: MTT; read-out: IC50 (Molar) Fibrosarcoma SW 694
# SK-OV-3 (Ovary) = assay: IC50 Aplidine Family panel (MTT); type: cell-based; conditions: read-out: IC50 (Molar) Ovary SK-OV-3
# [3] = test system: U-937 (Lymphoma, Histiocytic); assay: IC50 Aplidine Family panel (MTT); type: cell-based; conditions: read-out: IC50 (Molar) Lymphoma (Histiocytic) U-937
# A549 (NSCL) = assay: IC50 Aplidine Family panel (MTT/MTS); type: cell-based, human; conditions: MTT; read-out: IC50 (Molar) NSCL A549
# SK-HEP-1 (Liver) = assay: IC50 Aplidine Family panel (MTT/MTS); type: cell-based; conditions: MTT; read-out: IC50 (Molar) Liver SK-HEP-1
# [4] = doses near those required for therapeutic applications; cited from earlier work
# FADU (Pharynx) = assay: IC50 Aplidine Family panel (MTT/MTS); type: cell-based; conditions: MTT; read-out: IC50 (Molar) Pharynx FADU
# PC-3 (Prostate) = assay: IC50 Aplidine Family panel (MTT); type: cell-based; conditions: read-out: IC50 (Molar) Prostate PC-3
# 5637 (Bladder) = assay: IC50 Aplidine Family panel (MTT/MTS); type: cell-based; conditions: MTT; read-out: IC50 (Molar) Bladder 5637
# [5] = test system: K562 (CML, Chronic myelogenous); assay: IC50 Aplidine Family panel (MTT/MTS); type: cell-based; conditions: MTT; read-out: IC50 (Molar) CML (Chronic myelogenous) K562
# [6] = test system: HL-60 (ALL, Promyelocytic leukemia); assay: IC50 Aplidine Family panel (MTT/MTS); type: cell-based; conditions: MTT; read-out: IC50 (Molar) ALL (Promyelocytic leukemia) HL-60
# [7] = test system: P3HR1 (Lymphoma, Burkitts ascites); assay: IC50 Aplidine Family panel (MTT); type: cell-based; conditions: read-out: IC50 (Molar) Lymphoma (Burkitts ascites) P3HR1
# Hs746t (Gastric) = assay: IC50 Aplidine Family panel (MTT/MTS); type: cell-based; conditions: MTT; read-out: IC50 (Molar) Gastric Hs746t
# 786-O (Renal) = assay: IC50 Aplidine Family panel (MTT); type: cell-based; conditions: read-out: IC50 (Molar) Renal 786-O
# MX-1 (Breast) = assay: IC50 Aplidine Family panel (MTT/MTS); type: cell-based; conditions: MTT; read-out: IC50 (Molar) Breast MX-1
# [8] = test system: MC116 (Lymphoma, undifferentiated); assay: IC50 Aplidine Family panel (MTT/MTS); type: cell-based; conditions: MTT; read-out: IC50 (Molar) Lymphoma (undifferentiated) MC116
# PANC-1 (Pancreas) = assay: IC50 Aplidine Family panel (MTT); type: cell-based; conditions: read-out: IC50 (Molar) Pancreas PANC-1
# H9 (Lymphoma, T cell) = assay: IC50 Aplidine Family panel (MTT/MTS); type: cell-based; conditions: MTT; read-out: IC50 (Molar) Lymphoma (T cell) H9
# CCRF-SB (ALL, B-cell) = assay: IC50 Aplidine Family panel (MTT); type: cell-based; conditions: read-out: IC50 (Molar) ALL (B-cell) CCRF-SB
# [9] = test system: HT-29 human colon carcinoma; assay: Cytotoxicity IC50 (after Berjeron et al)
# Text: (§1) Methodology: after Berjeron et al, Biochem and Bioph Res. Comm., 1984, 121, 3, 848-854.
# MEL-28 human melanoma = assay: Cytotoxicity IC50 (after Berjeron et al)
# Text: as §1
# [10] = test system: A549 human lung carcinoma; assay: Cytotoxicity IC50 (after Berjeron et al)
# Text: as §1
# P388 Murine lymphoma = assay: Cytotoxicity IC50 (after Berjeron et al)
# Text: as §1
# tumor cells = assay: In vitro antitumor activity; type: cell-based
# [11] = test system: DU145 human prostate carcinoma; assay: Cytotoxicity IC50 (after Berjeron et al); type: cell-based
# Text: P388=Murine lymphoma. A549=human lung carcinoma. HT-29=human colon carcinoma. MEL-28=human melanoma. DU145=human prostate carcinoma
# Chem. 2000, 65, 782-792. Their synthesis was published before their discovery (l): Org. […] A549=human lung carcinoma. HT-29=human colon carcinoma. MEL-28=human melanoma. DU145=human prostate carcinoma
# NCI 60 cell panel = conditions: cited from earlier work
# [12] = test system: tumor cells (clonogenic assays); conditions: compared with III (didemnin B); cited from earlier work
# protein biosynthesis = conditions: compared with III (didemnin B); cited from earlier work
# pancreatic carcinoma = conditions: compared with III (didemnin B); cited from earlier work
# [13] = Homo sapiens, HT-29, read-out: Cytotoxicity of aplidine derivatives IC50 (Molar) HT29
# [14] = Homo sapiens, SK-MEL-28, read-out: Cytotoxicity of aplidine derivatives IC50 (Molar) MEL28
# [15] = Homo sapiens, A549, read-out: Cytotoxicity of aplidine derivatives IC50 (Molar) A549
# [16] = Mus musculus, P388, read-out: Cytotoxicity of aplidine derivatives IC50 (Molar) P388
# [17] = read-out: Cytotoxicity of aplidine derivatives IC50 (Molar) HT29, HT29
# [18] = read-out: Cytotoxicity of aplidine derivatives IC50 (Molar) MEL28, MEL28
# [19] = read-out: Cytotoxicity of aplidine derivatives IC50 (Molar) A549, A549
# [20] = DU145, read-out: Cytotoxicity of aplidine derivatives IC50 (Molar) DU145
# [21] = read-out: Cytotoxicity of aplidine derivatives IC50 (Molar) P388, P388
compound,measurement,setting,value
CC[C@H](C)[C@H]1NC(=O)[C@@H](NC(=O)[C@@H](CC(C)C)N(C)C(=O)[C@@H]2CCCN2C(=O)C(C)O)[C@@H](C)OC(=O)[C@H](Cc2ccc(OC)cc2)N(C)C(=O)[C@@H]2CCCN2C(=O)[C@H](CC(C)C)NC(=O)[C@@H](C)C(=O)[C@H](C(C)C)OC(=O)C[C@@H]1O (stereo partly shown) [Didemnin B],IC50,[1],35.6 nM
same,IC50,HT-29 (Colon),80.7 nM
same,IC50,[2],545 nM
same,IC50,SW 694 (Fibrosarcoma),3280 nM
same,IC50,SK-OV-3 (Ovary),163 nM
same,IC50,[3],187 nM
same,IC50,A549 (NSCL),121000 nM
same,IC50,SK-HEP-1 (Liver),92.1 nM
same,toxicity,[4],toxic at doses near those required for therapeutic applications
same,IC50,FADU (Pharynx),97.9 nM
same,IC50,PC-3 (Prostate),90 nM
same,IC50,5637 (Bladder),25 nM
same,IC50,[5],3310 nM
same,IC50,[6],144 nM
same,IC50,[7],55.8 nM
same,IC50,Hs746t (Gastric),6.6 nM
same,IC50,786-O (Renal),290 nM
same,IC50,MX-1 (Breast),1540 nM
same,IC50,[8],8.84 nM
same,IC50,PANC-1 (Pancreas),0.152 nM
same,IC50,"H9 (Lymphoma, T cell)",213 nM
same,IC50,"CCRF-SB (ALL, B-cell)",655 nM
"CC[C@H](C)[C@H]1NC(=O)[C@@H](NC(=O)[C@@H](CC(C)C)NC)[C@@H](C)OC(=O)[C@H](Cc2ccc(OC)cc2)N(C)C(=O)[C@@H]2CCCN2C(=O)[C@H](CC(C)C)NC(=O)[C@@H](C)C(=O)[C@H](C(C)C)OC(=O)C[C@@H]1O [SAPL2, Didemnin A, reference compound] (H-[dNMeL]T[X1]LP[NMeY](Me); ester 2-C)",IC50,[9]; [13],8.48 nM
same,IC50,MEL-28 human melanoma; [14],1.13 nM
same,IC50,[10]; [15],4.24 nM
same,IC50,P388 Murine lymphoma; [16],5.3 nM
"CC[C@H](C)[C@H]1NC(=O)[C@@H](NC(=O)[C@@H](CC(C)C)N(C)C(=O)OCc2ccccc2)[C@@H](C)OC(=O)[C@H](Cc2ccc(OC)cc2)N(C)C(=O)[C@@H]2CCCN2C(=O)[C@H](CC(C)C)NC(=O)[C@@H](C)C(=O)[C@H](C(C)C)OC(=O)C[C@@H]1O [SAPL3, Z-Didemnin A] (Cbz-[dNMeL]T[X1]LP[NMeY](Me); ester 2-C)",IC50,[9]; [13],4.64 nM
same,IC50,MEL-28 human melanoma; [14],4.64 nM
same,IC50,[10]; [15],2.32 nM
same,IC50,P388 Murine lymphoma; [16],9.3 nM
"CC[C@H](C)[C@H]1NC(=O)[C@@H](NC(=O)[C@@H](CC(C)C)NC)[C@@H](C)OC(=O)[C@H](Cc2ccc(OC)cc2)N(C)C(=O)[C@@H]2CCCN2C(=O)[C@H](CC(C)C)NC(=O)[C@H](C(C)C)OC(=O)C[C@@H]1O [SHPL2, [Hiv]^3-Didemnin A] (H-[dNMeL]T[X2][Hiv]LP[NMeY](Me); ester 2-C)",IC50,[9]; [13],1.13 nM
same,IC50,MEL-28 human melanoma; [14],1.13 nM
same,IC50,[10]; [15],1.13 nM
same,IC50,P388 Murine lymphoma; [16],1.1 nM
"CC[C@H](C)[C@H]1NC(=O)[C@@H](NC(=O)[C@@H](CC(C)C)N(C)C(=O)[C@@H]2CCCN2C(=O)C(C)=O)[C@@H](C)OC(=O)[C@H](Cc2ccc(OC)cc2)N(C)C(=O)[C@@H]2CCCN2C(=O)[C@H](CC(C)C)NC(=O)[C@H](C(C)C)NC(=O)C[C@@H]1O [SVPL1, [Val]^3-Aplidine] (Pyruvoyl-P[dNMeL]T[X2]VLP[NMeY](Me); ester 3-C)",IC50,"[9]; Homo sapiens, HT-29, read-out: Cytotoxicity of [aa3]-aplidine Congeners IC50 (Molar) HT29",0.113 nM
same,IC50,"MEL-28 human melanoma; Homo sapiens, SK-MEL-28, read-out: Cytotoxicity of [aa3]-aplidine Congeners IC50 (Molar) MEL28",0.113 nM
same,IC50,"[10]; Homo sapiens, A549, read-out: Cytotoxicity of [aa3]-aplidine Congeners IC50 (Molar) A549",0.113 nM
same,in vitro antitumor activity,tumor cells,high level of in vitro antitumor activity
same,IC50,"P388 Murine lymphoma; Mus musculus, P388, read-out: Cytotoxicity of [aa3]-aplidine Congeners IC50 (Molar) P388",0.113 nM
"CC[C@H](C)[C@H]1NC(=O)[C@@H](NC(=O)[C@@H](CC(C)C)NC)[C@@H](C)OC(=O)[C@H](Cc2ccc(OC)cc2)N(C)C(=O)[C@@H]2CCCN2C(=O)[C@H](CC(C)C)NC(=O)[C@H](C(C)C)NC(=O)C[C@@H]1O [SVPL2, [Val]^3-Didemnin A] (H-[dNMeL]T[X2]VLP[NMeY](Me); ester 2-C)",IC50,[9]; [13],1.13 nM
same,IC50,MEL-28 human melanoma; [14],1.13 nM
same,IC50,[10]; [15],1.13 nM
same,IC50,"[11]; Homo sapiens, DU-145, read-out: Cytotoxicity of aplidine derivatives IC50 (Molar) DU145",1.13 nM
same,IC50,P388 Murine lymphoma; [16],1.1 nM
[Hiv]^3 Z-Didemnin A [SHPL3],IC50,[9]; [17],4.9 nM
same,IC50,MEL-28 human melanoma; [18],4.9 nM
same,IC50,[10]; [19],4.9 nM
same,IC50,[11]; [20],4.9 nM
same,IC50,P388 Murine lymphoma; [21],4.9 nM
[Hiv]^3-[L-Lac]^9-aplidine [9LSHPL1(L)],tumor type specificity in NCI 60 cell panel,NCI 60 cell panel,does not show any tumor type specificity
same,in vitro antitumor activity in clonogenic assays,[12],retains similar levels of in vitro antitumor activity
same,protein biosynthesis inhibition properties,protein biosynthesis,retains similar levels
same,in vitro activity against pancreatic carcinoma,pancreatic carcinoma,somewhat more active in vitro than III
[MeVal]^3-aplidine,in vitro antitumor activity,tumor cells,high level of in vitro antitumor activity
[Val]^3 Z-Didemnin A [SVPL3],IC50,[9]; [17],0.98 nM
same,IC50,MEL-28 human melanoma; [18],0.98 nM
same,IC50,[10]; [19],0.98 nM
same,IC50,[11]; [20],0.98 nM
same,IC50,P388 Murine lymphoma; [21],0.98 nM
[ZNVa-Pro]^9-aplidine [9NVSAPL2],IC50,[9]; [17],3.93 nM
same,IC50,MEL-28 human melanoma; [18],3.93 nM
same,IC50,[10]; [19],3.93 nM
same,IC50,[11]; [20],3.93 nM
same,IC50,P388 Murine lymphoma; [21],7.9 nM
